Test results taken from ChEMBL document CHEMBL1124182, “Design, synthesis, and properties of (4S)-7-(4-amino-2-substituted-pyrrolidin-1-yl)quinolone-3-carboxylic acids” (J Med Chem, 1988).
In brackets after ≈: the same amount, converted by molar mass.

Assays:
Staphylococcus aureus [1] = assay: In vitro Minimum inhibitory concentration against Staphylococcus aureus 45; assay type: functional
Acinetobacter = assay: In vitro Minimum inhibitory concentration against Acinetobacter CMX 669; assay type: functional; conditions: Acinetobacter; read-out: MIC
Streptococcus equinus = assay: In vitro Minimum inhibitory concentration against Streptococcus bovis A5169; assay type: functional
Pseudomonas aeruginosa [2] = assay: In vitro Minimum inhibitory concentration against Pseudomonas aeruginosa K799/WT; assay type: functional
Streptococcus agalactiae = assay: In vitro Minimum inhibitory concentration against Streptococcus agalactiae CMX 508; assay type: functional
Klebsiella pneumoniae = assay: In vitro Minimum inhibitory concentration against Klebsiella pneumoniae 8045; assay type: functional
Staphylococcus aureus [3] = assay: In vitro Minimum inhibitory concentration against Staphylococcus aureus CMX 686B; assay type: functional
[4] = test system: Staphylococcus epidermidis; assay: In vitro Minimum inhibitory concentration against Staphylococcus epidermidis 3519; assay type: functional
Pseudomonas aeruginosa [5] = assay: In vitro Minimum inhibitory concentration against Pseudomonas aeruginosa 5007; assay type: functional
Staphylococcus aureus [6] = assay: In vitro Minimum inhibitory concentration against Staphylococcus aureus A5177; assay type: functional
Escherichia coli [7] = assay: In vitro Minimum inhibitory concentration against Escherichia coli Juhl; assay type: functional
Staphylococcus aureus [8] = assay: In vitro Minimum inhibitory concentration against Staphylococcus aureus ATCC 6538P; assay type: functional
Streptococcus pyogenes = assay: In vitro Minimum inhibitory concentration against Streptococcus pyogenes 930; assay type: functional
Enterococcus faecium = assay: In vitro Minimum inhibitory concentration against Streptococcus faecium ATCC 8043; assay type: functional
Mus musculus [9] = assay: (§1) Blood level was evaluated by a disk agar diffusion assay at 0.5 hr when administered at a peroral dose of 25 mg/kg; assay type: functional; conditions: route oral
Mus musculus [10] = assay: (§2) Blood level was evaluated by a disk agar diffusion assay at 1.0 hr when administered at a peroral dose of 25 mg/kg; assay type: functional; conditions: route oral
Mus musculus [11] = assay: (§3) Blood level was evaluated by a disk agar diffusion assay at 2.0 hr when administered at a peroral dose of 25 mg/kg; assay type: functional; conditions: route oral
[12] = Partition coefficient (logP); assay type: physicochemical; conditions: octanol/water
Escherichia coli [13] = assay: Supercoiling inhibition assay using purified DNA gyrase isolated from Escherichia coli H560; assay type: functional; conditions: read-out: I50
Mus musculus [14] = assay: (§4) Blood level was evaluated by a disk agar diffusion assay at 24.0 hr when administered at a peroral dose of 25 mg/kg; assay type: functional; conditions: route oral
Mus musculus [15] = assay: (§5) Blood level was evaluated by a disk agar diffusion assay at 3.0 hh when administered at a peroral dose of 25 mg/kg; assay type: functional; conditions: route oral
[16] = Compound was evaluated for the solubility in Ringer's buffer solution; assay type: ADME; conditions: Ringer's buffer solution; read-out: Solubility
Mus musculus [17] = assay: (§6) Blood level was evaluated by a disk agar diffusion assay at 6.0 hr when administered at a peroral dose of 25 mg/kg; assay type: functional; conditions: route oral
[18] = as §5; assay type: ADME, organism-based; parameters: dose 25 mg/kg, route oral; conditions: mouse, po, read-out: Blood level
Mus musculus [19] = assay: (§7) In vivo efficacy against Staphylococcus aureus 10649, in mouse protection tests when administered subcutaneously (sc); assay type: functional
[20] = as §2; assay type: ADME, organism-based; parameters: dose 25 mg/kg, route oral; conditions: mouse, po, read-out: Blood level
[21] = as §1; assay type: ADME, organism-based; parameters: dose 25 mg/kg, route oral; conditions: mouse, po, read-out: Blood level
[22] = as §3; assay type: ADME, organism-based; parameters: dose 25 mg/kg, route oral; conditions: mouse, po, read-out: Blood level
Mus musculus [23] = assay: (§8) In vivo efficacy against Staphylococcus aureus 10649, in mouse protection tests when administered perorally (po); assay type: functional
Mus musculus [24] = assay: In vivo efficacy against Escherichia coli Juhl, in mouse protection tests when administered perorally (po); assay type: functional
Mus musculus [25] = assay: In vivo efficacy against Escherichia coli Juhl, in mouse protection tests when administered subcutaneously (sc); assay type: functional
[26] = as §6; assay type: ADME, organism-based; parameters: dose 25 mg/kg, route oral; conditions: mouse, po, read-out: Blood level
Staphylococcus aureus [27] = assay: as §7; assay type: functional
[28] = as §4; assay type: ADME, organism-based; parameters: dose 25 mg/kg, route oral; conditions: mouse, po, read-out: Blood level
Staphylococcus aureus [29] = assay: as §8; assay type: functional

Compound	MIC (Staphylococcus aureus [1])	MIC (Acinetobacter)	MIC (Streptococcus equinus)	MIC (Pseudomonas aeruginosa [2])	MIC (Streptococcus agalactiae)	MIC (Klebsiella pneumoniae)	MIC (Staphylococcus aureus [3])	MIC [4]	MIC (Pseudomonas aeruginosa [5])	MIC (Staphylococcus aureus [6])	MIC (Escherichia coli [7])	MIC (Staphylococcus aureus [8])	MIC (Streptococcus pyogenes)	MIC (Enterococcus faecium)	concentration at 3 h [18]	other results
COCC1C[C@H](N)CN1c1nc2c(cc1F)c(=O)c(C(=O)O)cn2-c1ccc(F)cc1F (stereo partly drawn)	0.39 µg/mL (≈ 0.87 µM)	0.78 µg/mL (≈ 1.74 µM)	1.56 µg/mL (≈ 3.48 µM)	1.56 µg/mL (≈ 3.48 µM)	0.78 µg/mL (≈ 1.74 µM)	0.1 µg/mL (≈ 0.223 µM)	0.1 µg/mL (≈ 0.223 µM)	0.39 µg/mL (≈ 0.87 µM)	1.56 µg/mL (≈ 3.48 µM)	0.2 µg/mL (≈ 0.446 µM)	0.2 µg/mL (≈ 0.446 µM)	0.1 µg/mL (≈ 0.223 µM)	0.78 µg/mL (≈ 1.74 µM)	0.78 µg/mL (≈ 1.74 µM)	–	–
C[C@@H]1C[C@H](N)CN1c1nc2c(cc1F)c(=O)c(C(=O)O)cn2-c1ccc(F)cc1F	0.39 µg/mL (≈ 0.932 µM)	0.78 µg/mL (≈ 1.86 µM)	6.2 µg/mL (≈ 14.8 µM)	3.1 µg/mL (≈ 7.41 µM)	6.2 µg/mL (≈ 14.8 µM)	0.39 µg/mL (≈ 0.932 µM)	0.2 µg/mL (≈ 0.478 µM)	0.39 µg/mL (≈ 0.932 µM)	12.5 µg/mL (≈ 29.9 µM)	0.39 µg/mL (≈ 0.932 µM)	0.39 µg/mL (≈ 0.932 µM)	0.2 µg/mL (≈ 0.478 µM)	1.56 µg/mL (≈ 3.73 µM)	3.1 µg/mL (≈ 7.41 µM)	–	Blood level (Mus musculus [9]): 5.3 µg/mL; Blood level (Mus musculus [10]): 12.4 µg/mL; Blood level (Mus musculus [11]): 3.7 µg/mL; logP [12]: -0.11; IC50 (Escherichia coli [13]): 7.5 µg/mL (≈ 17.9 µM); Blood level (Mus musculus [14]): 0 µg/mL; Blood level (Mus musculus [15]): 2.2 µg/mL; solubility [16]: 340 µg/mL (≈ 813 µM); Blood level (Mus musculus [17]): 1.1 µg/mL
O=C(O)c1cn(-c2ccc(F)cc2F)c2cc(N3C[C@@H]4C[C@H]3CN4)c(F)cc2c1=O	0.78 µg/mL (≈ 1.88 µM)	0.39 µg/mL (≈ 0.939 µM)	1.56 µg/mL (≈ 3.76 µM)	0.39 µg/mL (≈ 0.939 µM)	0.78 µg/mL (≈ 1.88 µM)	0.05 µg/mL (≈ 0.12 µM)	0.2 µg/mL (≈ 0.481 µM)	0.39 µg/mL (≈ 0.939 µM)	1.56 µg/mL (≈ 3.76 µM)	0.39 µg/mL (≈ 0.939 µM)	0.05 µg/mL (≈ 0.12 µM)	0.1 µg/mL (≈ 0.241 µM)	0.78 µg/mL (≈ 1.88 µM)	0.39 µg/mL (≈ 0.939 µM)	–	–
C[C@H]1C[C@H](N)CN1c1cc2c(cc1F)c(=O)c(C(=O)O)cn2-c1ccc(F)cc1	0.05 µg/mL (≈ 0.125 µM)	0.1 µg/mL (≈ 0.25 µM)	0.2 µg/mL (≈ 0.501 µM)	0.78 µg/mL (≈ 1.95 µM)	0.2 µg/mL (≈ 0.501 µM)	0.01 µg/mL (≈ 0.025 µM)	0.05 µg/mL (≈ 0.125 µM)	0.05 µg/mL (≈ 0.125 µM)	3.1 µg/mL (≈ 7.76 µM)	0.05 µg/mL (≈ 0.125 µM)	0.02 µg/mL (≈ 0.0501 µM)	0.05 µg/mL (≈ 0.125 µM)	0.2 µg/mL (≈ 0.501 µM)	0.2 µg/mL (≈ 0.501 µM)	200 ng/mL	ED50 (Mus musculus [19]): 0.8 mg/kg; concentration at 1 h [20]: 800 ng/mL; concentration at 0.5 h [21]: 1000 ng/mL; concentration at 2 h [22]: 400 ng/mL; ED50 (Mus musculus [23]): 4.4 mg/kg
NC1CCN(c2cc3c(cc2F)c(=O)c(C(=O)O)cn3-c2ccc(F)cc2)C1 (stereo not drawn)	–	–	–	–	–	–	–	–	–	–	–	–	–	–	–	ED50 (Mus musculus [19]): 0.8 mg/kg; ED50 (Mus musculus [24]): 5.8 mg/kg; ED50 (Mus musculus [25]): 1 mg/kg; ED50 (Mus musculus [23]): 6.2 mg/kg
C[C@H]1C[C@H](N)CN1c1nc2c(cc1F)c(=O)c(C(=O)O)cn2-c1ccc(F)cc1	0.1 µg/mL (≈ 0.25 µM)	0.1 µg/mL (≈ 0.25 µM)	0.78 µg/mL (≈ 1.95 µM)	0.39 µg/mL (≈ 0.974 µM)	0.78 µg/mL (≈ 1.95 µM)	0.05 µg/mL (≈ 0.125 µM)	0.05 µg/mL (≈ 0.125 µM)	0.1 µg/mL (≈ 0.25 µM)	0.39 µg/mL (≈ 0.974 µM)	0.1 µg/mL (≈ 0.25 µM)	0.05 µg/mL (≈ 0.125 µM)	0.05 µg/mL (≈ 0.125 µM)	0.39 µg/mL (≈ 0.974 µM)	0.39 µg/mL (≈ 0.974 µM)	800 ng/mL	concentration at 6 h [26]: 300 ng/mL; ED50 (Staphylococcus aureus [27]): 2 mg/kg; concentration at 1 h [20]: 1900 ng/mL; concentration at 0.5 h [21]: 2400 ng/mL; concentration at 24 h [28]: 100 ng/mL; concentration at 2 h [22]: 1500 ng/mL; ED50 (Staphylococcus aureus [29]): 5.7 mg/kg
C[C@H]1C[C@H](N)CN1c1cc2c(cc1F)c(=O)c(C(=O)O)cn2-c1ccc(F)cc1F	0.1 µg/mL (≈ 0.24 µM)	0.1 µg/mL (≈ 0.24 µM)	0.2 µg/mL (≈ 0.479 µM)	0.39 µg/mL (≈ 0.934 µM)	0.1 µg/mL (≈ 0.24 µM)	0.02 µg/mL (≈ 0.0479 µM)	0.05 µg/mL (≈ 0.12 µM)	0.2 µg/mL (≈ 0.479 µM)	3.1 µg/mL (≈ 7.43 µM)	0.2 µg/mL (≈ 0.479 µM)	0.05 µg/mL (≈ 0.12 µM)	0.02 µg/mL (≈ 0.0479 µM)	0.2 µg/mL (≈ 0.479 µM)	0.1 µg/mL (≈ 0.24 µM)	1100 ng/mL	ED50 (Staphylococcus aureus [27]): < 0.5 mg/kg; ED50 (Mus musculus [24]): 3.6 mg/kg; logP [12]: 0.085; ED50 (Mus musculus [25]): 0.9 mg/kg; IC50 (Escherichia coli [13]): 0.9 µg/mL (≈ 2.16 µM); ED50 (Staphylococcus aureus [29]): 3.3 mg/kg; solubility [16]: 53 µg/mL (≈ 127 µM)
O=C(O)c1cn(-c2ccc(F)cc2)c2cc(N3CCC[C@@H]3CO)c(F)cc2c1=O	0.39 µg/mL (≈ 0.974 µM)	0.78 µg/mL (≈ 1.95 µM)	25 µg/mL (≈ 62.4 µM)	3.1 µg/mL (≈ 7.74 µM)	3.1 µg/mL (≈ 7.74 µM)	0.78 µg/mL (≈ 1.95 µM)	0.1 µg/mL (≈ 0.25 µM)	0.39 µg/mL (≈ 0.974 µM)	3.1 µg/mL (≈ 7.74 µM)	0.39 µg/mL (≈ 0.974 µM)	0.78 µg/mL (≈ 1.95 µM)	0.1 µg/mL (≈ 0.25 µM)	3.1 µg/mL (≈ 7.74 µM)	3.1 µg/mL (≈ 7.74 µM)	–	–
